One assay relates to MCF7 tumor spheres. The assay can be described thus: MCF7 tumor sphere assay. Format: cell-based, human. The note with it: MCF7 cells; 5 μM; 6.25 ng/mL doxorubicin; 7 days (FIGS. 34E, 34F). The protocol:
For the experiments shown in FIG. 34E, MCF7 cells were plated at a density of 20,000 cells per well using 2 mL Mammocult media in 6-well ultra-low adherent plates. The following day, cells were treated with Pen-Ctrl or Pen-Pep8 at a concentration of 5 μM. Peptides were added to each well for 20 minutes followed by 6.25 ng/mL doxorubicin. Cells were grown for 7 days and then the number of tumor spheres that were larger than 50 μm in diameter were counted (i.e., 20 10× photos were randomly taken and tumor spheres counted from the digital photos). For the graph shown in FIG. 34F, statistical analysis was performed using the student's t-test (n=3; *p≤0.05).
For the experiments shown in FIG. 36C, MCF7 cells were plated at a density of 20,000 cells per well using 2 mL Mammocult media in 6-well ultra-low adherent plates. The following day, cells were treated with 150 nM Cyc-Ctrl or Cyc-Pep8 (SEQ ID NO:5). 150 nM Cyc-Ctr/Pep8 was incubated in 100 μL serum-free DMEM with 3 μg PEP1 for 25 minutes before being added to the cells. After 20 minutes, 3.125 ng/mL doxorubicin was added to the cells for 7 days. Cells were grown for 7 days and then tumor spheres were counted that were larger than 50 μm in diameter (i.e., 20 10× photos were randomly taken and tumor spheres were counted from the digital photos).

In assay [1] the test system is p53. The assay can be described thus: Western blot for p53 and downstream targets in RKO cells treated with peptides. Conditions: RKO cells. Format: cell-based, human.
In assay [2] the test system is p53. The assay can be described thus: Western blot for p53 and downstream targets in MCF7 cells treated with peptides. Format: cell-based, human. The note with it: MCF7 cells. A general note: A western blot detects proteins with antibodies after separation by electrophoresis.
For assay [3], the system named is MIA-PaCa-2 pancreatic cancer cells. In words: MIA-PaCa-2 cell colony formation assay (peptides). Format: cell-based, human. Conditions: miaPaCa2 cells (mutant p53); 10 μM for 20 minutes then 0.25 ng/mL doxorubicin 18 hours (FIG. 37D). The source says:
[…] […] After colonies formed they were fixed (i.e., using 7:1 MeOH:glacial acetic acid) and stained with crystal violet.

The next assay relates to p53 (mutant). In words: Western blot for mutant p53 in miaPaCa2 cells treated with Pen-Pep8. Format: cell-based. The note with it: 2.5 μM for 30 minutes then 6.25 ng/mL doxorubicin 18 hours (FIG. 37C). The protocol:
For the experiments shown in FIG. 37C, 2×10^5 miaPaCa2 cells per well were plated the day before in a 6-well plate. The following day, the cells were treated with 2.5 μM Pen-Ctrl (SEQ ID NO:10) or Pen-Pep8 (SEP ID NO:50) for 30 minutes then treated with 6.25 ng/mL doxorubicin for 18 hours. The following the day, the cells were harvested with 350 μL 1×SDS-lysis buffer and 20 μL of lysate was loaded per well onto a 10% SDS-PAGE gel followed by Western blot for total eIF4E, p-eIF4E (Ser209), p53 (mutant), and actin.

A further assay relates to HaCaT cells. In words: HaCaT cell colony formation assay. Format: cell-based. The note with it: HaCaT cells (mutant p53); 10 μM for 20 minutes then 0.5 ng/mL doxorubicin 18 hours (FIG. 37D). The protocol: For the experiments shown in FIG. 37D, HaCaT and MiaPaCa2 cells were grown in 6-well plates at 500 cells per well. The following day, 10 μM Pen-Ctrl (SEQ ID NO:10), Pen-Pep23 (SEQ ID NO:9), or Pen-Pep8 (SEQ ID NO:50) were added to the cells for 20 minutes followed by treatment with 0.5 ng/mL doxorubicin (for HaCaT cells) or 0.25 ng/mL doxorubicin (for miaPaCa2 cells) for 18 hours, then the media was changed to fresh DMEM. After colonies formed they were fixed (i.e., using 7:1 MeOH:glacial acetic acid) and stained with crystal violet.

A further assay concerns p-eIF4E (Ser209). The assay can be described thus: Western blot for p-eIF4E (Ser209) in RKO, MCF7 and miaPaCa2 cells. Format: cell-based. The protocol: For the experiments shown in FIG. 37A, RKO cells were plated at a seed density of 1×10^5 cells per well in 12-well plates the night before the addition of peptides. For PEP1 (SEQ ID NO:13) plus Ctrl (SEQ ID NO:11), Pep8 (SEQ ID NO:1), Pep8-SR (SEQ ID NO:53), and Pep8-SK (SEQ ID NO:52), 375 nM of peptide was added to […] PEP1 in 100 μL serum-free DMEM for 20 minutes before being added to the cells for 18 hours. After 18 hours, cells were harvested with 1×SDS-lysis buffer (150 μL) and then lysate was run on a 10% SDS-PAGE gel followed by Western blotting for p53, p-eIF4E (Ser209), and actin.
For the experiments shown in FIG. 37B, MCF7 cells were grown the night before in a 6-well plate seeded with 2×10^5 cells. The next day cells were treated with 2.5 μM Pen-Ctrl (SEQ ID NO:10) or Pen-Pep8 (SEQ ID NO:50) for 18 hours. The following day, the cells were lysed with 1×SDS-lysis buffer (250 μL) and lysate was run on a 10% SDS-PAGE gel. 20 μl was loaded per well followed by Western blot for p-eIF4E (Ser-209), p53, and actin.
For the experiments shown in FIG. 37C, 2×10^5 miaPaCa2 cells per well were plated the day before in a 6-well plate. The following day, the cells were treated with 2.5 μM Pen-Ctrl (SEQ ID NO:10) or Pen-Pep8 (SEP ID NO:50) for 30 minutes then treated with 6.25 ng/mL doxorubicin for 18 hours. […]

The test system of another assay is RKO cells. The assay can be described thus: RKO cell colony formation assay (peptides). Format: cell-based, human. Conditions: 5 μM, 3.125 ng/mL doxorubicin 48 hours (FIG. 34D). The protocol:
For the experiments shown in FIG. 34D, RKO cells were seeded on a 6-well plate at a seed density of 2×10^3 cells per well. The following day the cells were treated with 5 μM Pen-Ctrl, 5 μM Pen-Pep23, or 5 μM Pen-Pep8. The following day, 3.125 ng/mL doxorubicin was added to the cells for 48 hours. Subsequently, the cell media was changed every 3 days until colonies were visible. The cells were fixed and stained with crystal violet.

Regarding “RQIKIWFQNRRMKWKKYPYAASPA [Pen-Pep8, Penetratin fused to Pep8]”, in the assay with MCF7 tumor spheres, the “number of tumor spheres larger than 50 μm in diameter, sensitization to low dose doxorubicin” value is on record as “sensitized cells to low dose doxorubicin”. Besides, the “sensitization to low-dose etoposide (p53 Western blot)” value in the assay with p53 [1] (1.5 μM for 20 minutes then 0.125 ng/mL etoposide 18 hours (FIG. 34I)) is listed as “also to low-dose etoposide”. In addition, in the assay with p53 [1] (1.5 μM for 20 minutes then 6.25 ng/mL doxorubicin 18 hours (FIG. 34I)), the “sensitization to low-dose doxorubicin (p53 Western blot)” value is reported as “sensitized to low-dose doxorubicin”. In addition, the “p53 expression with low dose doxorubicin (Western blot)” value in the assay with p53 [1] (2.5 μM for 20 minutes then 6.25 ng/mL doxorubicin 18 hours (FIG. 34A)) and in the assay with p53 [2] (2.5 μM for 20 minutes then 6.25 ng/mL doxorubicin 18 hours (FIG. 34B)) was “robust p53 expression” each time. For the same sequence, the “p53 expression (Western blot)” value is “induced p53 expression” in the assay with p53 [1] (2.5 μM, 18 hours (FIG. 32B)) and “induced p53 expression” in the assay with p53 [2] (2.5 μM, 18 hours (FIG. 32C)). In addition, the “p53 protein levels (Western blot)” value in the assay on p53 [2] (2.5 μM, 18 hours (FIG. 37B)) is “increased p53 protein levels”. Besides, the “colony formation, sensitization to low-dose doxorubicin” value in assay [3] is “sensitized to low-dose doxorubicin”; in the assay with HaCaT cells, “sensitized to low-dose doxorubicin”; in the assay on RKO cells, “sensitized MCF7 and RKO cells to low-dose doxorubicin”. In addition, the “mutant p53 expression (Western blot)” value in the assay on p53 (mutant) is given as “decreased mutant p53 expression”. In the assay with p-eIF4E (Ser209) (MCF7 cells, 2.5 μM, 18 hours (FIG. 37B)), the “p-eIF4E (Ser-209) level (Western blot)” value was “reduced p-eIF4E”. For the same sequence, in the assay on p-eIF4E (Ser209) (miaPaCa2 cells, 2.5 μM for 30 minutes then 6.25 ng/mL doxorubicin 18 hours (FIG. 37C)), the “p-eIF4E (Ser209) level (Western blot)” value is given as “substantial decrease in p-eIF4E”.
